According to US20090137664A1, “SAURURUS CERNUUS COMPOUNDS THAT INHIBIT CELLULAR RESPONSES TO HYPOXIA” (priority 2003, published 2009):
Like-named read-outs stand apart in the source and are kept apart here. One block for each compound: values may come before it.

Experiments:
[1] = tested on: HIF-1β protein; assay: Western blot, HIF-1β protein in T47D nuclear extract; type: cell-based, human
Description: Due to the low abundance of HIF-1α protein in whole cell extract, nuclear extract is prepared and the level of HIF-1α protein in the nuclear extract determined by Western blot. Briefly, exponentially grown T47D cells are exposed to compound 2 for 30 minutes. […] Nuclear extracts are prepared from control and treated cells, separated on a SDS/PAGE gel, the separated proteins transferred to a nitrocellulose membrane, incubated with the primary antibodies (anti-HIF-1α, and anti-HIF-1β monoclonal antibodies, Novus Biologicals), secondary antibody biotinylated anti-mouse immunoglobulin G and Vectastain ABC reagent (Vector Laboratories), and developed using ECL reagents (Amersham Biosciences). […] No change in HIF-1β protein level is observed across the treatments. It is reasonable to conclude that the selectivity of compound 2 towards hypoxia-activated HIF-1 is caused by selective blockade of the hypoxic induction of HIF-1 protein.

[2] = tested on: secreted VEGF protein; assay: induction of secreted VEGF protein by 1,10-phenanthroline in T47D cells (ELISA); type: cell-based, human; conditions: 10 μM, 16 hr
Description: Cell plating and compound treatment is similar to those described earlier for hypoxic conditions. […] At the end of the incubation, the concentration of secreted VEGF protein in the conditioned media is determined by ELISA and the data normalized by the number of viable cells.

[3] = tested on: HIF-1; assay: pTK-HRE3-luc reporter assay, hypoxia-induced HIF-1 activation in T47D cells
[4] = tested on: secreted VEGF protein; assay: hypoxic induction of secreted VEGF protein in T47D cells (ELISA); type: cell-based, human; conditions: for concentration at which hypoxic induction of secreted VEGF protein is completely blocked / inhibition of VEGF protein levels relative to the hypoxia-induced positive control: 12-well; for inhibition of VEGF protein levels relative to the hypoxia-induced positive control: p<0.01; for reduction of secreted VEGF protein induced by hypoxia: 96-well, 1 at 100 nM, 2 at 10 nM, PD98059 at 100 μM
Description: (§1) The effects of compounds 1 and 2 on hypoxic induction of secreted VEGF protein are examined in T47D cells. Exponentially grown T47D cells are plated at the density of 30,000 cells/well into 96-well plates. Compound treatment and hypoxic exposure are the same as described. Following incubation, the concentration of secreted VEGF protein in the conditioned media is determined by ELISA (R & D Systems) and the data normalized by the number of viable cells. Results shown in FIG. 4 are averages from a representative experiment performed in quadruplicate, the bars represent standard error. An asterisk (*) indicates the level of significance (p<0.01) relative to the hypoxic control, two asterisks (**) (p<0.0001), and no asterisk indicates no statistical difference (ANOVA and Fisher's PLSD post hoc test).
As discussed earlier, one important HIF-1 target gene is VEGF, a key factor for tumor angiogenesis. Compounds that can inhibit both HIF-1 activation and the production of secreted VEGF protein represent potential efficacious chemotherapeutic agents that inhibit both tumor survival and hypoxia induced angiogenesis. The effects of four active examples (compounds 2, 3, 4, and 5) on hypoxic induction of secreted VEGF protein are examined in T47D cells and the data are presented in FIG. 9. Exponentially grown T47D cells are plated at the density of 356,000 cells/well into 12-well plates. Compound treatment and hypoxic exposure are the same as described. Following incubation, the concentration of secreted VEGF protein in the conditioned media is determined by ELISA (R & D Systems) and the data normalized by the number of viable cells. […] Hypoxic exposure leads to a 2-fold increase in the level of secreted VEGF protein. […] The level of significance (p<0.01) is determined by ANOVA and Fisher's PLSD post hoc test. The exemplary compounds 2, 3, and 4 all completely block hypoxic induction of secreted VEGF protein at concentrations as low as 10 nM. The exemplary compound 5 inhibits the hypoxic induction by 60% at 10 nM, and completely blocks at 100 nM. When tested at 100 nM, none of the compounds interfere with the ELISA assay using VEGF standard (no greater than 15% difference).

[5] = T47D cell viability / cytotoxicity; type: cell-based, human; conditions: human; 100 μM; read-out: reduction of T47D cell viability
[6] = tested on: T47D cells; assay: T47D cell viability / cytotoxicity; type: cell-based, human
[7] = target: T1, recombinant VEGF protein standard (Homo sapiens, UniProt P15692); assay: interference with the VEGF ELISA using VEGF standard
T1 construct: purchased R & D Systems
T1 sequence (P15692 27-191 isoform P15692-4): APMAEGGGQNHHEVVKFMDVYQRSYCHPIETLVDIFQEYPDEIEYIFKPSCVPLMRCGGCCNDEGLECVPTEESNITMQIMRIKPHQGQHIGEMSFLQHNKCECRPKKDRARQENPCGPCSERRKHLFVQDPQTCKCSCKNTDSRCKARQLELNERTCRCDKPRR
Description: as §1
As discussed earlier, one important HIF-1 target gene is VEGF, a key factor for tumor angiogenesis. Compounds that can inhibit both HIF-1 activation and the production of secreted VEGF protein represent potential efficacious chemotherapeutic agents that inhibit both tumor survival and hypoxia induced angiogenesis. […] Following incubation, the concentration of secreted VEGF protein in the conditioned media is determined by ELISA (R & D Systems) and the data normalized by the number of viable cells. […] The level of significance (p<0.01) is determined by ANOVA and Fisher's PLSD post hoc test. […]

[8] = tested on: HIF-1; assay: pTK-HRE3-luc reporter assay, 1,10-phenanthroline-induced HIF-1 activation in T47D cells; type: cell-based; conditions: Homo sapiens, read-out: inhibition of HIF-1 activation by 1,10-phenanthroline, 1 μM
From the text: Iron chelators and transition metals (such as cobalt and nickel) can activate HIF-1 and have been used as chemical hypoxia mimetics. […] The expression of the HIF-1α subunit quantitatively determines HIF-1 biological activity (activation of transcription).

[9] = tested on: pGL3 Control; assay: luciferase expression from control plasmid pGL3 Control; type: cell-based, human
Description: The chemical structures of active compounds 1 and 2 are shown above. Compound 2 is the known compound manassantin B and 1 is a novel compound of the present invention. […] Similar results are obtained from separate experiments. The IC50 is 3 nM for 2 and 30 nM for 1. Complete inhibition is observed at 10 nM for 2 and 100 nM for 1.

Compound: c1cnc2c(c1)ccc1cccnc12 [1,10-phenanthroline, reference compound]
- HIF-1β protein level [1]: no significant effect
- secreted VEGF protein level in T47D cells [2]: significantly induces

Compound: COc1ccc(C(O)C(C)Oc2ccc(C3OC(c4ccc(OC(C)C(O)c5ccc6c(c5)OCO6)c(OC)c4)C(C)C3C)cc2OC)cc1OC (stereo not drawn) [Compound 4]
- concentration at which complete inhibition of hypoxic activation of HIF-1 is observed ([3]; T47D, pHRE-luc assay): 10 nM
- concentration at which hypoxic induction of secreted VEGF protein is completely blocked [4]: 10 nM
- inhibition of VEGF protein levels relative to the hypoxia-induced positive control [4]: significantly inhibit

Compound: COc1ccc(C(O)C(C)Oc2ccc(C3OC(c4ccc(OC)c(OC)c4)C(C)C3C)cc2OC)cc1OC (stereo not drawn) [Compound 5]
- concentration at which complete inhibition of hypoxic activation of HIF-1 is observed ([3]; T47D, pHRE-luc assay): 100 nM
- concentration at which hypoxic induction of secreted VEGF protein is completely blocked [4]: 100 nM
- inhibition of VEGF protein levels relative to the hypoxia-induced positive control [4]: significantly inhibit
- inhibition at 0.01 µM ([4]; Homo sapiens, 10 nM): 60%

Compound: COc1ccc(C(O)C(C)Oc2ccc(C3OC(c4ccc(OC(C)C(O)c5ccc(OC)c(OC)c5)c(OC)c4)C(C)C3C)cc2OC)cc1OC (stereo not drawn) [Compound 3]
- concentration at which complete inhibition of hypoxic activation of HIF-1 is observed ([3]; T47D, pHRE-luc assay): 10 nM
- concentration at which hypoxic induction of secreted VEGF protein is completely blocked [4]: 10 nM
- inhibition of VEGF protein levels relative to the hypoxia-induced positive control [4]: significantly inhibit

- IC50 ([3]; Homo sapiens, T47D, 16 h, read-out: IC50 for inhibition of hypoxia-induced HIF-1 activation): 1000 nM
Compound: O=c1c(-c2ccc(O)cc2)coc2cc(O)cc(O)c12 [genistein, reference compound]
- concentration for 70% inhibition of hypoxic activation of HIF-1 [3]: 10 µM
- cytotoxicity at 100 μM [5]: 50%

- IC50 ([3]; read-out: IC50 for inhibition of hypoxia-induced HIF-1 activation, T47D cells, hypoxic conditions 16 hr): 2000 nM
Compound: COc1cccc(-c2cc(=O)c3ccccc3o2)c1N [PD98059, reference compound]
- concentration for 70% inhibition of hypoxic activation of HIF-1 [3]: 10 µM
- concentration at which hypoxic activation of HIF-1 is completely inhibited ([3]; T47D, pHRE-luc assay): 100 µM
- cytotoxicity [6]: no significant cytotoxicity
- reduction of secreted VEGF protein induced by hypoxia [4]: only 1 and 2 treatments lead to statistically significant reduction

- IC50 ([3]; Homo sapiens, T47D, read-out: IC50, inhibition of hypoxic activation of HIF-1): 30 nM
- interference with the ELISA assay [7]: neither compound interferes
- luciferase expression from the control plasmid (pGL3 Control) ([9]; hypoxia experiment (FIG. 3)): No statistically significant difference
Compound: COc1cc(C(O)C(C)Oc2ccc(C3OC(c4ccc(OC(C)C(O)c5ccc6c(c5)OCO6)c(OC)c4)C(C)C3C)cc2OC)ccc1O (stereo not drawn) [Compound 1]
- concentration at which complete inhibition of hypoxic activation of HIF-1 is observed ([3]; T47D, pHRE-luc assay): 100 nM
- inhibition at 1 µM [8]: 45%
- luciferase expression from the pGL3-Control plasmid ([9]; 1,10-phenanthroline experiment (FIG. 5)): Neither compound exerts significant effect
- reduction of secreted VEGF protein induced by hypoxia [4]: statistically significant reduction
